According to patent publication US20050227941A1, “Sequestration of ass in the periphery in the absence of immunomodulating agent as a therapeutic approach for the treatment or prevention of beta-amyloid related diseases” (priority 2001, published 2005):

Tests used:
Format in all cases: in vivo
Aβ42 [1] = target: T1, Aβ42 (Homo sapiens, UniProt P05067); assay: Plasma Aβ42 level over time after a single injection of CG in PS/APP mice (ELISA); details: single injection 20 mg/kg
T1 construct: from tissue; host or cells: brain (70% formic acid extract) and plasma of PS/APP transgenic mice
Excerpt: In this Example, as in Example 1, transgenic mice that develop AD-related amyloidosis, (i.e., PS/APP mice; See, L. Holcomb et al., 1998, Nature Med., 4(1):97-100) were used to assess the Aβ-binding compound chrysamine G (CG) in the peripheral sequestration of Aβ according to this invention, and to determine how the peripheral sequestration of Aβ by this compound affected brain Aβ levels. CG is known to bind Aβ strongly, and is less brain permeable than GM1.
PS/APP mice at 10 weeks of age were injected once either with CG (number of mice=3, dosage: 20 mg/kg) or vehicle (phosphate buffered saline, number of mice=2) into the blood stream. […] […] The levels of Aβ peptides (Aβ40 or Aβ42) in the plasma were assessed by ELISA immunoassay. The levels of Aβ peptides in the periphery, i.e., plasma, of CG treated mice were compared with plasma Aβ levels in pretreatment mice at various time points.
Changes in plasma load of Aβ42 after injection with CG were compared to the plasma Aβ level at pretreatment time points. As can be observed, there was a significant increase in plasma Aβ levels after injection of CG.

Aβ40 [2] = target: T2, Aβ40 (Homo sapiens, UniProt P05067); assay: Brain Aβ40 (70% formic acid extract, ELISA) after one week of daily CG injection in PS/APP mice; details: 20 mg/kg ip every day for one week, sacrificed at 12 weeks, vehicle 926 ± 26
T2 construct: from tissue; host or cells: brain (70% formic acid extract) and plasma of PS/APP transgenic mice
Method: (§1) Following a oneweek wash out period, the effect in brain AD level after continuous injection was examined. PS/APP mice were injected every day for one week into the periphery, with either CG (number of mice=3) (20 mg/kg, ip,) or vehicle (phosphate buffered saline) (number of mice=2), at 11 weeks of age, an age when amyloid pathology in the brain is not visible. The mice were sacrificed at 12 weeks of age, an age when amyloid deposition has been initiated and measurable levels of Aβ are present in the vehicle treated controls.
(§2) The levels of Aβ in the peripheral blood were tested at the end of the administration period. The levels of Aβ peptides (e.g., Aβ40 or Aβ42) in the brain and plasma were assessed by ELISA assay. All of the Aβ in the brain (including Aβ in plaques) was extracted in 70% formic acid (FA). The levels of Aβ peptides in CG treated mice were compared with those of vehicle treated controls. […] This correlates with a statistically significant increase in peripheral Aβ40 and Aβ42 at the same time point.

Aβ42 [3] = target: T1, Aβ42; assay: Brain Aβ42 (70% formic acid extract, ELISA) after one week of daily CG injection in PS/APP mice; details: 20 mg/kg ip every day for one week, sacrificed at 12 weeks, vehicle 1209 ± 292, not statistically significant
Method: as §1, §2

Aβ42 [4] = target: T1, Aβ42; assay: Plasma Aβ42 level after one week of daily CG injection in PS/APP mice (ELISA); details: 20 mg/kg ip every day for one week from 11 weeks of age, vehicle = 100 ± 9
Method: as §1, §2

Aβ40 [5] = target: T2, Aβ40; assay: Brain Abeta40 load (70% formic acid extract, ELISA) in PS/APP mice after peripheral GM1 or gelsolin; details: 1 week wash-out; for brain Abeta load, Abeta40: ip every two days for two weeks from 9 weeks of age, sacrificed at 12 weeks, FA-soluble brain fraction; for brain Abeta40 load compared with controls (vehicle): ip every two days for two weeks, % of vehicle
Method: (§3) Transgenic mice that develop AD-related amyloidosis, (i.e., PS/APP mice; See, L. Holcomb et al., 1998, Nature Med., 4(1):97-100) were used for the studies described in this Example to assess how peripheral sequestration of Aβ affected brain Aβ levels. […] In addition, a second compound, gelsolin, which is too large to cross the blood/brain barrier (BBB), and is completely unrelated to GM1, but which is also known to bind Aβ with great avidity, was administered peripherally to confirm the universality of the mechanism.
(§4) PS/APP mice were injected every two days for two weeks either with GM1 (number of mice=6) (15 mg/kg, ip,), with gelsolin (number of mice=3) (60 μg/kg, ip), or with vehicle, (phosphate buffered saline), (number=7), into the periphery at 9 weeks of age, an age when amyloid pathology in the brain is not visible. The mice were left for 1 week without injections (the “wash-out” period) and were then sacrificed at 12 weeks of age, an age when amyloid deposition has been initiated and measurable levels of Aβ are present in the vehicle treated controls.
(§5) The levels of Aβ in the peripheral blood were tested at three time points during the drug administration period (i.e., after 1 week of injections; after two weeks of injections; and after the washout period). Data for the third time point only are shown. The levels of Aβ peptides (Aβ40 or Aβ42) in the brain and plasma were assessed by ELISA assay. All of the Aβ in the brain (including Aβ in plaques) was extracted in 70% formic acid (FA). The levels of Aβ peptides in GM1 or gelsolin treated mice were compared with those of vehicle treated controls.
(§6) This correlates with a statistically significant increase in peripheral Aβ40 and Aβ42 at the same time point. For gelsolin, there was also a significant decrease in Aβ42, which correlated with a statistically significant increase in peripheral Aβ, thus confirming that the general principle of Aβ sequestration in the periphery being linked to reduction of Aβ in the CNS holds true for very different types of compounds that have the unifying property of being able to bind Aβ in the blood.

Aβ40 [6] = target: T2, Aβ40; assay: Plasma Abeta40 load (ELISA) in PS/APP mice after peripheral GM1 or gelsolin; details: ip every two days for two weeks, third time point (after wash-out), vehicle = 100 ± 21
Method: as §3, §4
(§7) The levels of Aβ in the peripheral blood were tested at three time points during the drug administration period (i.e., after 1 week of injections; after two weeks of injections; and after the washout period). […] The levels of Aβ peptides (Aβ40 or Aβ42) in the brain and plasma were assessed by ELISA assay. […]

Aβ42 [7] = target: T1, Aβ42; assay: Brain Abeta42 load (70% formic acid extract, ELISA) in PS/APP mice after peripheral GM1 or gelsolin; details: 1 week wash-out; for brain Abeta load, Abeta42: ip every two days for two weeks from 9 weeks of age, sacrificed at 12 weeks, FA-soluble brain fraction; for brain Abeta42 load compared with controls (vehicle): ip every two days for two weeks, % of vehicle
Method: as §3, §4, §5, §6

Aβ = assay: GM1 introduced directly into the brain of transgenic mice, Aβ levels
Excerpt: Neither GM1 nor gelsolin is known to cross into the brain from the periphery to any degree. […] This is the first time that such a result has been shown for a peripherally administered compound that is not an antibody. As such, the invention affords a significant advantage to the art by describing and promoting Aβ-binding compounds that require neither penetration of the brain nor the evocation of an immune response, which are potentially harmful and ineffective ways to modulate the risk of AD in human patients.

Aβ42 [8] = target: T1, Aβ42; assay: Plasma Abeta42 load (ELISA) in PS/APP mice after peripheral GM1 or gelsolin; details: ip every two days for two weeks, third time point (after wash-out), vehicle = 100 ± 7
Method: as §3, §4, §7

T2 sequence (P05067 672-711 limits assumed): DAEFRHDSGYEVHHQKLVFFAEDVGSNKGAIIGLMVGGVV
T1 sequence (P05067 672-713 limits assumed): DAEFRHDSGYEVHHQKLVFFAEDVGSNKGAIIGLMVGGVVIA
Chain of Aβ (P05067 672-711 limits assumed): as the sequence (P05067 672-711 limits assumed) above

Compound | plasma Aβ42 level (Aβ42 [1]; 2.5 hours after injection) | plasma Aβ42 level (Aβ42 [1]; 5 hours after injection) | plasma Aβ42 level (Aβ42 [1]; 7.5 hours after injection) | plasma Aβ42 level (Aβ42 [1]; 24 hours after injection) | plasma Aβ42 level (Aβ42 [1]; 48 hours after injection) | brain Aβ40 (Aβ40 [2]) | brain Aβ42 (Aβ42 [3]) | plasma Aβ42 level (Aβ42 [4]) | brain Abeta load, Abeta40 (Aβ40 [5]) | brain Abeta40 load compared with controls (vehicle) (Aβ40 [5]) | plasma Abeta load, Abeta40 (Aβ40 [6]) | brain Abeta load, Abeta42 (Aβ42 [7]) | brain Abeta42 load compared with controls (vehicle) (Aβ42 [7]) | change in Aβ levels (Aβ) | plasma Abeta load, Abeta42 (Aβ42 [8])
O=C([O-])c1cc(N=Nc2ccc(-c3ccc(N=Nc4ccc(O)c(C(=O)[O-])c4)cc3)cc2)ccc1O.[Na+].[Na+] [CG, 5,5′-[(1,1′ biphenyl)-4,4′-diylbis(azo)]bis [2-hydroxybenzoic acid]disodium salt] | 110 ± 8 (p = 0.232) % of pre-treatment time point | 125 ± 8 (p = 0.049) % of pre-treatment time point | 125 ± 7 (p = 0.034) % of pre-treatment time point | 112 ± 13 (p = 0.341) % of pre-treatment time point | 111 ± 10 (p = 0.256) % of pre-treatment time point | 541 ± 50 fmol/mL | 540 ± 271 fmol/mL | 331 ± 10 % of control | – | – | – | – | – | – | –
GM1 | – | – | – | – | – | – | – | – | 2147 ± 226 fmole/mg protein | 59% | 177 ± 29 fmole/ml plasma | 2990 ± 410 fmole/mg protein | 73% | no change in Aβ levels was observed | 124 ± 11 fmole/ml plasma
gelsolin | – | – | – | – | – | – | – | – | 3473 ± 673 fmole/mg protein | 96% | 218 ± 87 fmole/ml plasma | 2473 ± 167 fmole/mg protein | 60% | – | 153 ± 35 fmole/ml plasma
